Reference: patent US20250214992A1, “HIGH-PURITY COMPOUND PRODUCTION METHOD AND PURIFICATION METHOD” (SANTEN PHARMACEUTICAL CO., LTD., priority 2022, published 2025)

Assay: Ames test
Format: cell-based
Settings: impurity contained in the prepared AFDX0250; found in the development stage of a pharmaceutical composition

O=C1Nc2cccnc2N(C(=O)CCl)c2ccccc21 [Compound 1, 11-(2-chloroacetyl)-5,11-dihydro-6H-pyrido[2,3-b][1,4]benzodiazepin-6-one]
Ames test result: positive
